# In US9296757B2, “Substituted benzothienopyrimidines” (BAYER PHARMA AKTIENGESELLSCHAFT, priority 2012, dated 2016):
# Target: human full-length MKNK1 (Homo sapiens (Human), UniProt Q9BUB5, T344D)
# Experiment: MKNK1 kinase high ATP assay (TR-FRET)
# Assay type: biochemical
# Conditions: high ATP (2 mM final), 15 min preincubation with enzyme
# In short: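 GST-tagged full-length MKNK1 (T344D), insect-cell expressed, preincubated 15 min at 22 °C with compound, then reacted 30 min at 22 °C with 2 mM ATP and 0.06 μM biotinylated peptide in HEPES pH 7.5 buffer (final concentrations). Phospho-peptide detected by TR-FRET (665/620 nm ratio), normalised to no-inhibitor and no-enzyme controls.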
# Chain of human full-length MKNK1 (Q9BUB5 other isoform, or with tags, fused parts or gaps T344D): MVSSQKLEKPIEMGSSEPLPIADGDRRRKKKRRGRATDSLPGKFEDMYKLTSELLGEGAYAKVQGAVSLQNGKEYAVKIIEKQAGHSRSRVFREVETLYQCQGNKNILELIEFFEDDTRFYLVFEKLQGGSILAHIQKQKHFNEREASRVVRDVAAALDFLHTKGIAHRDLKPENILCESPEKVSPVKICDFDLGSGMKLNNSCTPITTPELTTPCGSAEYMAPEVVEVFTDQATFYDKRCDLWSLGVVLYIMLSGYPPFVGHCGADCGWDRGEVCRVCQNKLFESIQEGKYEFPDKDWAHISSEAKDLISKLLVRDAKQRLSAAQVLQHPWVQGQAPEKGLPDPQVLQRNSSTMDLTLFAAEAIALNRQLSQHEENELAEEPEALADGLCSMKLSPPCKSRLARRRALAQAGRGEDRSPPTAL
row,Compound,IC50
1,"CC1CN(C(=O)C2CCc3c(sc4ncnc(Nc5ccc6[nH]c(=O)sc6c5)c34)C2)CC(C)O1 (racemic) [Example 68, 6-{[(7RS)-7-{[(2RS,6RS)-2,6-dimethylmorpholin-4-yl]carbonyl}-5,6,7,8-tetrahydro[1]benzothieno[2,3-d]pyrimidin-4-yl]amino}-1,3-benzothiazol-2(3H)-one]",32 nM
2,"CCCN(CCOC)C(=O)C1CCc2c(sc3ncnc(Nc4ccc5[nH]c(=O)sc5c4)c23)C1 (racemic) [Example 69, (RS)-N-(2-methoxyethyl)-4-[(2-oxo-2,3-dihydro-1,3-benzothiazol-6-yl)amino]-N-propyl-5,6,7,8-tetrahydro[1]benzothieno[2,3-d]pyrimidine-7-carboxamide]",19 nM
3,"CCN(CCOC)C(=O)C1CCc2c(sc3ncnc(Nc4ccc5[nH]c(=O)sc5c4)c23)C1 (racemic) [Example 70, (RS)-N-ethyl-N-(2-methoxyethyl)-4-[(2-oxo-2,3-dihydro-1,3-benzothiazol-6-yl)amino]-5,6,7,8-tetrahydro[1]benzothieno[2,3-d]pyrimidine-7-carboxamide]",24 nM
4,"O=C(C1CCc2c(sc3ncnc(Nc4ccc5[nH]c(=O)sc5c4)c23)C1)N1CCC(CO)CC1 (racemic) [Example 71, (RS)-6-[(7-{[4-(hydroxymethyl)piperidin-1-yl]carbonyl}-5,6,7,8-tetrahydro[1]benzothieno[2,3-d]pyrimidin-4-yl)amino]-1,3-benzothiazol-2(3H)-one]",47 nM
5,"COCCN1CCN(C(=O)C2CCc3c(sc4ncnc(Nc5ccc6[nH]c(=O)sc6c5)c34)C2)CC1 (racemic) [Example 72, (RS)-6-[(7-{[4-(2-methoxyethyl)piperazin-1-yl]carbonyl}-5,6,7,8-tetrahydro[1]benzothieno[2,3-d]pyrimidin-4-yl)amino]-1,3-benzothiazol-2(3H)-one]",44 nM
6,"CN(C)C1CCN(C(=O)C2CCc3c(sc4ncnc(Nc5ccc6[nH]c(=O)sc6c5)c34)C2)C1 (racemic) [Example 73, 6-{[(7RS)-7-{[(3RS)-3-(dimethylamino)pyrrolidin-1-yl]carbonyl}-5,6,7,8-tetrahydro[1]benzothieno[2,3-d]pyrimidin-4-yl]amino}-1,3-benzothiazol-2(3H)-one]",34 nM
7,"CN1CC2CC1CN2C(=O)C1CCc2c(sc3ncnc(Nc4ccc5[nH]c(=O)sc5c4)c23)C1 (racemic) [Example 74, 6-{[(7RS)-7-{[(1RS,4RS)-5-methyl-2,5-diazabicyclo[2.2.1]hept-2-yl]carbonyl}-5,6,7,8-tetrahydro[1]benzothieno[2,3-d]pyrimidin-4-yl]amino}-1,3-benzothiazol-2(3H)-one]",47 nM
8,"N#CC1CCCN(C(=O)C2CCc3c(sc4ncnc(Nc5ccc6[nH]c(=O)sc6c5)c34)C2)C1 (racemic) [Example 75, (3RS)-1-({(7RS)-4-[(2-oxo-2,3-dihydro-1,3-benzothiazol-6-yl)amino]-5,6,7,8-tetrahydro[1]benzothieno[2,3-d]pyrimidin-7-yl}carbonyl)piperidine-3-carbonitrile]",32 nM
9,"N#CC1CCN(C(=O)C2CCc3c(sc4ncnc(Nc5ccc6[nH]c(=O)sc6c5)c34)C2)CC1 (racemic) [Example 76, (RS)-1-({4-[(2-oxo-2,3-dihydro-1,3-benzothiazol-6-yl)amino]-5,6,7,8-tetrahydro[1]benzothieno[2,3-d]pyrimidin-7-yl}carbonyl)piperidine-4-carbonitrile]",54 nM
10,"COCC1CCCN1C(=O)C1CCc2c(sc3ncnc(Nc4ccc5[nH]c(=O)sc5c4)c23)C1 (racemic) [Example 77, 6-{[(7RS)-7-{[(2RS)-2-(methoxymethyl)pyrrolidin-1-yl]carbonyl}-5,6,7,8-tetrahydro[1]benzothieno[2,3-d]pyrimidin-4-yl]amino}-1,3-benzothiazol-2(3H)-one]",41 nM
11,"O=C(C1CCc2c(sc3ncnc(Nc4ccc5[nH]c(=O)sc5c4)c23)C1)N1CCN(CC2CC2)CC1 (racemic) [Example 78, (RS)-6-[(7-{[4-(cyclopropylmethyl)piperazin-1-yl]carbonyl}-5,6,7,8-tetrahydro[1]benzothieno[2,3-d]pyrimidin-4-yl)amino]-1,3-benzothiazol-2(3H)-one]",34 nM
12,"O=C(C1CCc2c(sc3ncnc(Nc4ccc5[nH]c(=O)sc5c4)c23)C1)N1CC(N2CCCCC2)C1 (racemic) [Example 79, (RS)-6-[(7-{[3-(piperidin-1-yl)azetidin-1-yl]carbonyl}-5,6,7,8-tetrahydro[1]benzothieno[2,3-d]pyrimidin-4-yl)amino]-1,3-benzothiazol-2(3H)-one]",38 nM
13,"CN(C(=O)C1CCc2c(sc3ncnc(Nc4ccc5[nH]c(=O)sc5c4)c23)C1)C1CCOC(C)(C)C1 (racemic) [Example 80, (RS)-N-(2,2-dimethyltetrahydro-2H-pyran-4-yl)-N-methyl-4-[(2-oxo-2,3-dihydro-1,3-benzothiazol-6-yl)amino]-5,6,7,8-tetrahydro[1]benzothieno[2,3-d]pyrimidine-7-carboxamide]",42 nM
14,"CN1CCN(C(=O)C2CCc3c(sc4ncnc(Nc5ccc6[nH]c(=O)sc6c5)c34)C2)CC1CCO (racemic) [Example 81, 6-{[(7RS)-7-{[(3RS)-3-(2-hydroxyethyl)-4-methylpiperazin-1-yl]carbonyl}-5,6,7,8-tetrahydro[1]benzothieno[2,3-d]pyrimidin-4-yl]amino}-1,3-benzothiazol-2(3H)-one]",34 nM
15,"CN(CCN1CCOCC1)C(=O)C1CCc2c(sc3ncnc(Nc4ccc5[nH]c(=O)sc5c4)c23)C1 (racemic) [Example 82, (RS)-N-methyl-N-[2-(morpholin-4-yl)ethyl]-4-[(2-oxo-2,3-dihydro-1,3-benzothiazol-6-yl)amino]-5,6,7,8-tetrahydro[1]benzothieno[2,3-d]pyrimidine-7-carboxamide]",46 nM
16,"O=C(C1CCc2c(sc3ncnc(Nc4ccc5[nH]c(=O)sc5c4)c23)C1)N1CC2(COC2)C1 (racemic) [Example 83, (RS)-6-{[7-(2-oxa-6-azaspiro[3.3]hept-6-ylcarbonyl)-5,6,7,8-tetrahydro[1]benzothieno[2,3-d]pyrimidin-4-yl]amino}-1,3-benzothiazol-2(3H)-one]",52 nM
17,"COC1CCCN(C(=O)C2CCc3c(sc4ncnc(Nc5ccc6[nH]c(=O)sc6c5)c34)C2)C1 (racemic) [Example 84, 6-{[(7RS)-7-{[(3RS)-3-methoxypiperidin-1-yl]carbonyl}-5,6,7,8-tetrahydro[1]benzothieno[2,3-d]pyrimidin-4-yl]amino}-1,3-benzothiazol-2(3H)-one]",30 nM
18,"COc1cc2[nH]c(=O)sc2cc1Nc1ncnc2sc3c(c12)CCC(C(=O)N(C)C)C3 (racemic) [Example 85, (RS)-4-[(5-methoxy-2-oxo-2,3-dihydro-1,3-benzothiazol-6-yl)amino]-N,N-dimethyl-5,6,7,8-tetrahydro[1]benzothieno[2,3-d]pyrimidine-7-carboxamide]",4 nM
19,"CCN(C(=O)C1CCc2c(sc3ncnc(Nc4cc5sc(=O)[nH]c5cc4OC)c23)C1)C(C)C (racemic) [Example 86, (RS)—N-Ethyl-N-isopropyl-4-[(5-methoxy-2-oxo-2,3-dihydro-1,3-benzothiazol-6-yl)amino]-5,6,7,8-tetrahydro[1]benzothieno[2,3-d]pyrimidine-7-carboxamide]",3 nM
20,"CCCN(CCOC)C(=O)C1CCc2c(sc3ncnc(Nc4cc5sc(=O)[nH]c5cc4OC)c23)C1 (racemic) [Example 87, (RS)—N-(2-Methoxyethyl)-4-[(5-methoxy-2-oxo-2,3-dihydro-1,3-benzothiazol-6-yl)amino]-N-propyl-5,6,7,8-tetrahydro[1]benzothieno[2,3-d]pyrimidine-7-carboxamide]",2 nM
21,"CCCCN(CC#N)C(=O)C1CCc2c(sc3ncnc(Nc4cc5sc(=O)[nH]c5cc4OC)c23)C1 (racemic) [Example 88, (RS)—N-Butyl-N-(cyanomethyl)-4-[(5-methoxy-2-oxo-2,3-dihydro-1,3-benzothiazol-6-yl)amino]-5,6,7,8-tetrahydro[1]benzothieno[2,3-d]pyrimidine-7-carboxamide]",1 nM
22,"CCCCN(C)C(=O)C1CCc2c(sc3ncnc(Nc4cc5sc(=O)[nH]c5cc4OC)c23)C1 (racemic) [Example 89, (RS)—N-Butyl-4-[(5-methoxy-2-oxo-2,3-dihydro-1,3-benzothiazol-6-yl)amino]-N-methyl-5,6,7,8-tetrahydro[1]benzothieno[2,3-d]pyrimidine-7-carboxamide]",1.9 nM
23,"CCN(CCOC)C(=O)C1CCc2c(sc3ncnc(Nc4cc5sc(=O)[nH]c5cc4OC)c23)C1 (racemic) [Example 90, (RS)—N-Ethyl-N-(2-methoxyethyl)-4-[(5-methoxy-2-oxo-2,3-dihydro-1,3-benzothiazol-6-yl)amino]-5,6,7,8-tetrahydro[1]benzothieno[2,3-d]pyrimidine-7-carboxamide]",1 nM
24,"N#CC1CN(C(=O)C2CCc3c(sc4ncnc(Nc5ccc6[nH]c(=O)sc6c5)c34)C2)C1 (racemic) [Example 91, (RS)-1-({4-[(2-Oxo-2,3-dihydro-1,3-benzothiazol-6-yl)amino]-5,6,7,8-tetrahydro[1]benzothieno[2,3-d]pyrimidin-7-yl}carbonyl)azetidine-3-carbonitrile]",38.7 nM
25,"COc1cc2[nH]c(=O)sc2cc1Nc1ncnc2sc3c(c12)CCC(C(=O)N(CCN(C)C)Cc1ccccc1)C3 (racemic) [Example 92, (RS)—N-Benzyl-N-[2-(dimethylamino)ethyl]-4-[(5-methoxy-2-oxo-2,3-dihydro-1,3-benzothiazol-6-yl)amino]-5,6,7,8-tetrahydro[1]benzothieno[2,3-d]pyrimidine-7-carboxamide]",0.6 nM
26,"COCCN(CCOC)C(=O)C1CCc2c(sc3ncnc(Nc4cc5sc(=O)[nH]c5cc4OC)c23)C1 (racemic) [Example 93, (RS)—N,N-bis(2-methoxyethyl)-4-[(5-methoxy-2-oxo-2,3-dihydro-1,3-benzothiazol-6-yl)amino]-5,6,7,8-tetrahydro[1]benzothieno[2,3-d]pyrimidine-7-carboxamide]",0.7 nM
